Experimental data as given in ChEMBL document CHEMBL1649425, “A-CD estrogens. I. Substituent effects, hormone potency, and receptor subtype selectivity in a new family of flexible estrogenic compounds” (J Med Chem, 2011).

How the values were obtained:
Homo sapiens [1] = species on record: Homo sapiens; experiment: Selectivity ratio of relative binding affinity for human ERbeta to relative binding affinity for human ERalpha
[2] = molecular target: T1, Estrogen receptor (Homo sapiens) (UniProt P03372); experiment: Activity at human ERalpha expressed in HEK293 cells assessed as relative transcription activation by estrogen response element-lucifease assay relative to estradiol; type: cell-based; set-up: concentration or dose not given beside the values
T1 sequence (whole entry): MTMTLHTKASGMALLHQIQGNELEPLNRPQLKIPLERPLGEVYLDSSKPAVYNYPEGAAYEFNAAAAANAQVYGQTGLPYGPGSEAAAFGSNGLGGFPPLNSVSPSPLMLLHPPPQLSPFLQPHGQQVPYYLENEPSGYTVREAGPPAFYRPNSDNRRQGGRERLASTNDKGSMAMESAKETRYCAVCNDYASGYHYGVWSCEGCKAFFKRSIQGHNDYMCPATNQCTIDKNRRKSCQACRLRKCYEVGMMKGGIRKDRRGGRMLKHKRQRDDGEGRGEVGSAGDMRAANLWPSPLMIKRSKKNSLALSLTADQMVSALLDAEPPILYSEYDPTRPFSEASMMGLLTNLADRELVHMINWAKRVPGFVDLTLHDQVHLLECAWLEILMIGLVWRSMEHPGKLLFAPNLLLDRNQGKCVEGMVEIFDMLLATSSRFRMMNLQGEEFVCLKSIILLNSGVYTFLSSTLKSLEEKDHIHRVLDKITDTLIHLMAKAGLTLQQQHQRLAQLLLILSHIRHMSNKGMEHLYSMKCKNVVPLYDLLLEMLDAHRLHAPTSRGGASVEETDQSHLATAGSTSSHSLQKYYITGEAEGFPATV

[3] = Hepatotoxicity in Sprague-Dawley rat hepatocyte after 2 hrs; type: toxicity, cell-based; settings: hepatocytes, read-out: LC50
[4] = molecular target: Estrogen receptor beta (Homo sapiens) (UniProt Q92731); experiment: Activity at human ERbeta expressed in HEK293 cells assessed as relative transcription activation by estrogen response element-lucifease assay relative to estradiol; type: cell-based; set-up: concentration or dose not given beside the values
Homo sapiens [5] = species on record: Homo sapiens; experiment: Selectivity ratio of relative transcription activation for human ERbeta to relative transcription activation for human ERalpha

Estrogen receptor beta (Homo sapiens), sequence (Q92731 whole entry): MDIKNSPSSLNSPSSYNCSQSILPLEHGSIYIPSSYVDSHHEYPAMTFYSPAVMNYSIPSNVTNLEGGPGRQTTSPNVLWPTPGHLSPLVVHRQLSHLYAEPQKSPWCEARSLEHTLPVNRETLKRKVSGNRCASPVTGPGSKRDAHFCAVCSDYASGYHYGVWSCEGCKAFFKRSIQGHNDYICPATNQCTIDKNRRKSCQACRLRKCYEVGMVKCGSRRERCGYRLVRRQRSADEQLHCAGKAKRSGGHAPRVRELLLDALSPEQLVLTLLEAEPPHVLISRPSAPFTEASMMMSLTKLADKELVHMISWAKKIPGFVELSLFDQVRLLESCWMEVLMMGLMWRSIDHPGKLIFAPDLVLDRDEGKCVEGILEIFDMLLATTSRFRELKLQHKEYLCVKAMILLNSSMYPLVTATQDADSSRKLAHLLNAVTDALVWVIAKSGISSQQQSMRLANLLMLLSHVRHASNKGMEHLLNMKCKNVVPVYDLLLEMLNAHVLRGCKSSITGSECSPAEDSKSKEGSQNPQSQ

SMILES | Ratio (Homo sapiens [1]) | Activity [2] [%] | CC50 at 2 h [3] [µM] | Activity [4] [%] | Ratio (Homo sapiens [5])
C[C@]12CC[C@H](c3ccc(O)c(F)c3F)C[C@H]1CC[C@@H]2O | 9.3 | 18.3 | 155 | 151 | 8.3
C[C@]12CC[C@H](c3ccc(O)cc3Cl)C[C@H]1CC[C@@H]2O | – | 90 | – | 189 | –
C[C@]12CC[C@H](c3ccc(O)cc3)C[C@H]1CCC2=O | 14 | – | – | – | –
C[C@]12CC[C@H](c3ccc(O)c(F)c3)C[C@H]1CC[C@@H]2O | 8.3 | -9 | – | 196 | –
C[C@]12CC[C@H](c3cc(F)c(O)cc3F)C[C@H]1CC[C@@H]2O | 8.7 | – | – | – | –
C[C@]12CC[C@@H]3c4ccc(O)cc4CC[C@H]3[C@@H]1CC[C@@H]2O [ESTRADIOL] | – | – | 400 | – | –
Cc1cc(O)ccc1[C@H]1CC[C@@]2(C)[C@H](CC[C@@H]2O)C1 | 11.9 | -9.7 | – | 49.2 | –
Cc1c(O)ccc([C@H]2CC[C@@]3(C)[C@H](CC[C@@H]3O)C2)c1F | 1 | – | – | – | –
C[C@]12CC[C@H](c3cc(F)c(O)c(F)c3)C[C@H]1CC[C@@H]2O | 6.9 | – | – | – | –
Cc1c(O)ccc([C@H]2CC[C@@]3(C)[C@H](CC[C@@H]3O)C2)c1C | 2.8 | – | – | – | –
C[C@]12CCC(c3ccc(O)cc3Cl)=C[C@H]1CC[C@@H]2O | 1.7 | 98.6 | – | 127 | 1.3
C[C@]12CC[C@H](c3ccc(O)cc3F)C[C@H]1CC[C@@H]2O | 5 | 44.3 | 250 | 158 | 3.6
C[C@]12CC[C@@H](c3ccc(O)cc3)C[C@H]1CC[C@@H]2O | – | – | 300 | – | –
C[C@]12CC=C(c3ccc(O)cc3Cl)C[C@H]1CC[C@@H]2O | 2.3 | 115 | – | 117 | 1
C[C@]12CC[C@H](c3ccc(O)cc3)C[C@H]1CC[C@@H]2O | 14.6 | 4.2 | 320 | 164 | 39
C#C[C@]1(O)CC[C@@H]2C[C@@H](c3ccc(O)cc3)CC[C@@]21C | 1.3 | -16.9 | – | 35.9 | –
C[C@]12CC[C@H](c3cc(F)c(O)c(F)c3F)C[C@H]1CC[C@@H]2O | 9.3 | 12.8 | > 600 | 95.4 | 7.9
C[C@]12CC[C@H](c3cc(Cl)c(O)c(Cl)c3)C[C@H]1CC[C@@H]2O | 0.5 | 0 | – | 0 | –
